Laboratory results taken from BindingDB's records for patent US10800778 (Entasis Therapeutics Limited, 2020).

What was measured:
Beta-lactamase = Beta-lactamase (Klebsiella pneumoniae, UniProt Q6XEC0); assay: Inhibition of Beta-Lactamase Enzymes
Experimental: (§1) A buffer consisting of 0.1 M sodium phosphate (pH 7.0), 10 mM NaHCO3, and 0.005% Triton X-100 was used for all enzymes. The chromogenic substrate nitrocefin (SynGene, Bangalore, India) was used at 100 μM. Enzyme activity was monitored by the 490 nm absorbance increase upon nitrocefin hydrolysis. Assays were performed in clear polystyrene 384-well plates (Greiner Bio-One, Monroe, N.C.). Absorbance was measured for 1 hour at 30-s intervals using a Spectramax absorbance plate reader (Molecular Devices, Sunnyvale, Calif.). Measurement of beta-lactamase inhibition by INHIBITOR employed serial 3-fold dilutions of the inhibitor in assay buffer, ranging from 100 μM to 62.7 pM. A background absorbance progress curve for a control lacking enzyme and inhibitor was subtracted from each progress curve.

Beta-lactamase TEM = Beta-lactamase TEM (Escherichia coli, UniProt P62593); assay: Inhibition of Beta-Lactamase Enzymes
Sequence of Beta-lactamase TEM (P62593 whole entry): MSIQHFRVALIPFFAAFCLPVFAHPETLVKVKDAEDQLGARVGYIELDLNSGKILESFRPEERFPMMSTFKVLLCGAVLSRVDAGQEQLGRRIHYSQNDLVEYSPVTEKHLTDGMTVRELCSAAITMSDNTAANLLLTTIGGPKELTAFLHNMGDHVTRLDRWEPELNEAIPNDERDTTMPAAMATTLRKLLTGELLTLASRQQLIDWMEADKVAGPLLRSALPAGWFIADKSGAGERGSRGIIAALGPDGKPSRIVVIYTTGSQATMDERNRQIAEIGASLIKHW
Experimental: as §1

Sequence of Beta-lactamase (Q6XEC0 whole entry): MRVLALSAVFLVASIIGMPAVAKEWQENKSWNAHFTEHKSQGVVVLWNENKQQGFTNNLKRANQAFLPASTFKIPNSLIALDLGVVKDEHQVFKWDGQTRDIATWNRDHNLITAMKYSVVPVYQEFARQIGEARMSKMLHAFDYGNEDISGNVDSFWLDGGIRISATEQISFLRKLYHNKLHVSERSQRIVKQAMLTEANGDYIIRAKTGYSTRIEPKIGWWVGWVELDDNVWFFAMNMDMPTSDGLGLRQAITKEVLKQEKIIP

CC1=C[C@@H]2CN(C(=O)N2O[C@@H](F)C(=O)O)[C@@H]1C(=O)NOC[C@@H]1CCCN1 [US10800778, Example 62]
IC50 (Beta-lactamase): 870 nM
IC50 (Beta-lactamase TEM): 210 nM
